Among the test systems are OVCAR-4; NCI-H23; OVCAR-8; SF-295; UO-31; SK-OV-3; MDA-N; MDA-MB-435; 786-0; HT-29; CCRF-CEM; MOLT-4; IGROV-1; NCI-H522; TK-10; HOP-62; HCC 2998; CAKI-1.
Common to all, as to assay: NCI tumour cell line growth inhibition, 48 h

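Test compounds were applied to cells in 96-well plates for 48 hours at 5 doses. The concentration for 50% growth inhibition is given as GI50.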 The source made the active and inactive calls. Cut-off read from the data, not from the text of the source: active = GI50 up to about 1.1 µM and inactive = higher.

As for `COC(=O)[C@]1(c2cc3ccccc3[nH]2)CC2CN(C(=O)OCc3ccccc3)C1CC2=O` (stereo partly specified), the GI50 in the test with OVCAR-4 was 28.1 µM (inactive); in the test on NCI-H23, 29.7 µM (inactive); in the test with OVCAR-8, 26.7 µM (inactive); in the test on SF-295 it was 25.4 µM (inactive); with UO-31, 21.3 µM (inactive); in the test with SK-OV-3, 33.4 µM (inactive). Further, the GI50 was 24.8 µM (inactive) in the test with MDA-N; 30.1 µM (inactive) with MDA-MB-435; 23.8 µM (inactive) in the test with 786-0; 15.5 µM (inactive) in the test on HT-29; 28.2 µM (inactive) in the test on CCRF-CEM; 15 µM (inactive) with MOLT-4. In addition, the GI50 was 29.7 µM (inactive) in the test on IGROV-1; 20.6 µM (inactive) in the test on NCI-H522; 53.5 µM (inactive) in the test on TK-10; 43.2 µM (inactive) in the test on HOP-62; 35 µM (inactive) in the test on HCC 2998; 38.5 µM (inactive) in the test with CAKI-1.
Take `Cc1cnc2nc(-c3cccc4ccccc34)cc(O)c2c1`: the GI50 was 16.4 µM (inactive) with OVCAR-4; 0.00179 µM (active) in the test on NCI-H23; 0.00251 µM (active) with OVCAR-8; 0.000887 µM (active) in the test with SF-295; 0.00242 µM (active) in the test with UO-31; 0.000706 µM (active) in the test on SK-OV-3. Further, the GI50 with MDA-N is 0.000216 µM (active); in the test with MDA-MB-435, 0.000211 µM (active); in the test with 786-0, 0.000791 µM (active); with HT-29, 0.000412 µM (active); in the test with CCRF-CEM, 0.000692 µM (active); in the test on MOLT-4, 0.000955 µM (active). For the same compound, the GI50 in the test on IGROV-1 was 0.00552 µM (active); with NCI-H522 it was 0.000261 µM (active); with HOP-62 it was 0.0248 µM (active); with HCC 2998, 0.000723 µM (active); in the test with CAKI-1, 0.000646 µM (active).
With `CCCCCCCCCCCCCCCCCCOCC(O)COP(=O)(O)OCC1OC(n2ccc(N)nc2=O)C(O)C1O` (stereo unspecified), the GI50 with OVCAR-4 is 28.3 µM (inactive); in the test with NCI-H23 it was 26.1 µM (inactive); with OVCAR-8, 6.31 µM (inactive); with SF-295, 22.7 µM (inactive); in the test on SK-OV-3, 66.8 µM (inactive); in the test on MDA-N it was 93.8 µM (inactive). The GI50 is 45.4 µM (inactive) in the test with MDA-MB-435; 10.9 µM (inactive) with 786-0; 22.8 µM (inactive) in the test with HT-29; 0.56 µM (active) with CCRF-CEM; 0.908 µM (active) in the test with MOLT-4; 9.62 µM (inactive) in the test on IGROV-1. Also, the GI50 in the test on NCI-H522 was 13.4 µM (inactive); in the test on TK-10 it was 14.2 µM (inactive); in the test on HOP-62, 11.6 µM (inactive); in the test on HCC 2998 it was 22 µM (inactive); with CAKI-1, 23.1 µM (inactive).
As to `CCOC(=O)/C(C(=O)Nc1cccc(Cl)c1)=C(/N)N1CCOCC1`, the GI50 with OVCAR-4, in the test on NCI-H23, in the test with OVCAR-8, with SF-295, with SK-OV-3 and in the test on MDA-N was > 100 µM (inactive) each time. The GI50 in the test with MDA-MB-435, in the test on 786-0, in the test with HT-29, in the test on CCRF-CEM, in the test with MOLT-4 and with IGROV-1 was > 100 µM (inactive) throughout. The GI50 in the test on NCI-H522, in the test on TK-10, in the test with HOP-62, in the test on HCC 2998 and in the test on CAKI-1 was > 100 µM (inactive) throughout.
In the case of `[N-]=[N+]=NC1OC(=O)C(Cl)=C1N=P(c1ccccc1)(c1ccccc1)c1ccccc1` (stereo unspecified), the GI50 was 9.71 µM (inactive) in the test with OVCAR-4; > 10 µM (inactive) with OVCAR-8; 7.24 µM (inactive) in the test on SF-295; > 10 µM (inactive) with UO-31; > 10 µM (inactive) in the test on SK-OV-3; 9.27 µM (inactive) with MDA-N. For the same compound, the GI50 with MDA-MB-435 was 8.17 µM (inactive); with 786-0, > 10 µM (inactive); in the test with CCRF-CEM, 4.3 µM (inactive); with MOLT-4, 3.01 µM (inactive); in the test on IGROV-1 it was > 10 µM (inactive); with NCI-H522, 6.67 µM (inactive). The GI50 in the test with TK-10, with HOP-62, in the test on HCC 2998 and in the test with CAKI-1 was > 10 µM (inactive) throughout.
`C=C1CC23CCC4C(C)(C(=O)O)CCCC4(C)C2CCC1C3` (stereo unspecified): the GI50 in the test with OVCAR-4 was 58.5 µM (inactive); with NCI-H23, 41.9 µM (inactive); with OVCAR-8, 41.7 µM (inactive); in the test with SF-295, 35.3 µM (inactive); in the test with UO-31, 28.8 µM (inactive); in the test on SK-OV-3, 44.5 µM (inactive). Further, the GI50 with MDA-N was 64 µM (inactive); in the test on MDA-MB-435 it was 62.1 µM (inactive); with 786-0, 40.6 µM (inactive); in the test on HT-29, 42.7 µM (inactive); with CCRF-CEM it was 25.1 µM (inactive); in the test with IGROV-1 it was 24.4 µM (inactive). In addition, the GI50 in the test with NCI-H522 was 23.8 µM (inactive); in the test on TK-10 it was 38.4 µM (inactive); in the test on HOP-62, > 100 µM (inactive); in the test with HCC 2998, 17.1 µM (inactive); in the test on CAKI-1, 22.3 µM (inactive).
`Cn1c(=O)c2c(nc(NCCNc3nc4c(c(=O)n(C)c(=O)n4C)n3C)n2C)n(C)c1=O`: the GI50 in the test on OVCAR-4, in the test with NCI-H23, with OVCAR-8, with SF-295, in the test on UO-31 and with MDA-N was > 100 µM (inactive) in each case. Also, the GI50 in the test on MDA-MB-435, in the test with 786-0, with HT-29, with CCRF-CEM, in the test on MOLT-4 and with IGROV-1 was > 100 µM (inactive) in each case. In addition, the GI50 in the test with NCI-H522, in the test on TK-10, with HOP-62, in the test with HCC 2998 and in the test on CAKI-1 was > 100 µM (inactive) throughout.
Regarding `CCCCCCc1cc2cc(C(=O)Nc3cccc(F)c3)c(=N)oc2cc1O`, the GI50 in the test with OVCAR-4 is 2.78 µM (inactive); in the test on NCI-H23, 2.12 µM (inactive); in the test on OVCAR-8 it was 1.59 µM (inactive); in the test with SF-295 it was 3.2 µM (inactive); in the test on UO-31, 2.73 µM (inactive); with SK-OV-3, 3.37 µM (inactive). For the same compound, the GI50 was 3.14 µM (inactive) in the test on MDA-N; 2.4 µM (inactive) with MDA-MB-435; 3.28 µM (inactive) with 786-0; 17.9 µM (inactive) in the test on HT-29; 1.63 µM (inactive) in the test with CCRF-CEM; 1.95 µM (inactive) in the test on MOLT-4. The GI50 in the test with IGROV-1 is 1.42 µM (inactive); in the test with NCI-H522, 1.59 µM (inactive); in the test with HOP-62, 4.57 µM (inactive); in the test with HCC 2998, 3.19 µM (inactive); in the test with CAKI-1, 2.9 µM (inactive).
